Assay results: patent US12071435B2, “TLR8 agonist” (CHIA TAI TIANQING PHARMACEUTICAL GROUP CO., LTD., priority 2018, dated 2024)

Experiments:
Type in all cases: cell-based
[1] = biological target: Human TLR8 (Homo sapiens (Human), UniProt Q9NR97); test: HEK-Blue hTLR8 SEAP reporter gene assay (agonistic activity); conditions: HEK-Blue hTLR8 cells, 24 h incubation, SEAP by QUANTI-Blue OD650
Excerpt: (§1) The HEK-Blue™ hTLR7 (catalog No.: hkb-ht1r7) and HEK-Blue™ hTLR8 (catalog No.: hkb-ht1r8) cell lines used in this experiment were purchased from InvivoGen. The two cell lines were constructed by a human embryonic kidney 293 cell line stably co-transfecting hTLR7 or hTLR8 and inducing expression of Secreted Alkaline Phosphatase (SEAP) reporter gene, wherein SEAP reporter gene was regulated by an IFN-β promoter. The promoter was fused with NF-κB and AP-1 binding sites. hTLR7 or hTLR8 agonist can activate NF-κB and AP-1 and induce the expression and secretion of SEAP. The agonistic activity of compound for hTLR7 and hTLR8 receptors was identified by measuring the expression level of SEAP using QUANTI-Blue™ reagent.
(§2) • 1. Compound was diluted in 3-fold gradients (10 concentration points in total) and added to the cell plate in duplicate. 1 μL of DMSO was added to each negative control well. • 2. The cells cultured in a T150 flask were taken out from a CO2 incubator, and the cell culture supernatant was discarded. The resulting cells were washed once with Dulbecco's phosphate buffered saline (DPBS). The flask was added with about 10 mL of the culture medium, and tapped to detach the cells. The resulting cell mass was gently pipetted evenly. The cells were counted and the cell suspension was adjusted to 500,000 cells/mL with the culture medium. Then 100 μL of diluted cells were added to each well (50,000 cells/well) of a 96-well plate containing the compound. • 3. The compound and cells were incubated in an incubator at 37° C., 5% CO2 for 24 h. • 4. Activity assay on the compound: 20 μL of the induced cell supernatant from each well was added to a cell culture plate containing 180 μL of QUANTI-Blue™ reagent, and after incubation at 37° C. for 1 h, the optical density absorbance at 650 nm (OD650) was assayed for each well using a multi-functional microplate reader. • 5. Activity assay on the cells: luciferase signal (RLU) was detected using a multi-functional microplate reader as per the process described in the instructions of ATPlite 1Step. • 6. Data analysis: compound activity: OD650 values were analyzed using GraphPad Prism software and the dose-response curves of the compounds were fitted to calculate EC50 values (half maximal effect concentration) for the compounds.

[2] = biological target: Human TLR7 (Homo sapiens (Human), UniProt Q9NYK1); test: HEK-Blue hTLR7 SEAP reporter gene assay (agonistic activity); conditions: HEK-Blue hTLR7 cells, 24 h incubation, SEAP by QUANTI-Blue OD650
Excerpt: as §1, §2

[3] = test system: human peripheral blood mononuclear cells (hPBMCs); test: IFN-α induction in peripheral blood mononuclear cells, ELISA; conditions: PBMC, hPBMC, 24 h incubation, supernatant, up to 50 μM
Excerpt: (§3) TLR8 is a receptor for the innate immune system to sense exogenous pathogens, and can recognize exogenous viral single-stranded RNA and cause the release of a series of cytokines such as TNF-α, IL-12, IFN-γ to elicit an antiviral immune response; TLR7 is another receptor for the innate immune system to sense exogenous pathogens and, when activated, produces primarily such antiviral cytokines as IFN-α. In this experiment, a potential compound of TLR8 agonist was used to stimulate human peripheral blood mononuclear cells (hPBMCs), and the levels of TNF-α, IL-12p40, IFN-γ and IFN-α above were measured to reflect the activation of the compound on TLR8 receptor and its selectivity for TLR8/TLR7.
• 1. […] After the cells were counted with Vi-cell cell counter, the concentration of cell suspension was adjusted to 2×10^6/mL; • 3. […] IL-12p40, TNF-α and IFN-γ in the supernatant were detected by flow cytometric bead array (CBA); IFN-α in the cell supernatant was detected by enzyme-linked immuno sorbent assay (ELISA). • 6. Data analysis: compound activity: EC50 values (half maximal effect concentration) were analyzed using a GraphPad Prism software and the dose-response curves of the compound were fitted to calculate EC50 values for the compound.

[4] = test system: human peripheral blood mononuclear cells (hPBMCs); test: Cytokine induction (IL-12p40, IFN-γ, TNF-α) in peripheral blood mononuclear cells, flow cytometric bead array; conditions: PBMC, hPBMC, 24 h incubation, supernatant, CBA
Excerpt: as §3
• 1. Fresh blood of healthy volunteers was collected and anticoagulated with an EDTA-K2 anticoagulation tube (catalog No.: BD-8516542); • 2. hPBMC cells in the middle cloud-like layer were separated after Ficoll density gradient centrifugation, and washed twice with RPMI1640 (source: Gibco, catalog No.: 224400-089) containing 10% serum, and the culture medium was resuspended to 10 mL. After the cells were counted with Vi-cell cell counter, the concentration of cell suspension was adjusted to 2×10^6/mL; • 3. The compound was dissolved in DMSO to 100 mM, and diluted to 50 mM and 2 mM with DMSO, which were served as initial concentrations. Then the solutions were each diluted sequentially in a 3-fold gradient (sample at a previous concentration (5 μL)+DMSO (10 μL)) to obtain 8 gradients. The resulting solutions were respectively subjected to 500-fold dilution with the culture medium to prepare the working solutions of the compound; • 4. […] IL-12p40, TNF-α and IFN-γ in the supernatant were detected by flow cytometric bead array (CBA); IFN-α in the cell supernatant was detected by enzyme-linked immuno sorbent assay (ELISA). • 6. Data analysis: compound activity: EC50 values (half maximal effect concentration) were analyzed using a GraphPad Prism software and the dose-response curves of the compound were fitted to calculate EC50 values for the compound.

Chain of Human TLR7 (Q9NYK1 27-1049): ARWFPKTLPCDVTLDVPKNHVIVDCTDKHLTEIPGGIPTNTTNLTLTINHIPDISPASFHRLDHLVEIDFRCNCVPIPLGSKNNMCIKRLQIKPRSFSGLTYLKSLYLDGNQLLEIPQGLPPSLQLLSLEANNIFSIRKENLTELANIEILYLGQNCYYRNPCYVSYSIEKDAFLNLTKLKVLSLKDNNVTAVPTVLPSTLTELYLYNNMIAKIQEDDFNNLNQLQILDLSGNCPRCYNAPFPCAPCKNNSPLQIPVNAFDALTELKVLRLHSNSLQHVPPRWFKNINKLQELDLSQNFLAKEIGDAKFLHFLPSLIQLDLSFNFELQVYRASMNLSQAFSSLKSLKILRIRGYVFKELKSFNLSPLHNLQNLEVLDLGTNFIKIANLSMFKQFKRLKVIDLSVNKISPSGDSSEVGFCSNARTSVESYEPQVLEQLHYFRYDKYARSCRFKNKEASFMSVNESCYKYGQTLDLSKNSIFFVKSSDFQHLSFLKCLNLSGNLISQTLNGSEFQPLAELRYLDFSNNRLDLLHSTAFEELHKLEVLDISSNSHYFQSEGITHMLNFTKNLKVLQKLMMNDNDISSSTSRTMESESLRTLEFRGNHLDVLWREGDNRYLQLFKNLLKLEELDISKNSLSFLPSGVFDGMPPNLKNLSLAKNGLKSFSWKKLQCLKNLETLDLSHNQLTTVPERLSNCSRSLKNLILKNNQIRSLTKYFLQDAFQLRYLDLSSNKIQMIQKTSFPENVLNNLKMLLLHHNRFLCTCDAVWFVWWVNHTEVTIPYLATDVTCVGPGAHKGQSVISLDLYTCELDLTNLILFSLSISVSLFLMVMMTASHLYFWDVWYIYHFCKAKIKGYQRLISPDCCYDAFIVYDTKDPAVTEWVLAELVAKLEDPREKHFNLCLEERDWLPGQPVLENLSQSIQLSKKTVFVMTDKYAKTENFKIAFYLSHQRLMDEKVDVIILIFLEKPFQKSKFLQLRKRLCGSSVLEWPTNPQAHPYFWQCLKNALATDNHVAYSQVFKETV
Chain of Human TLR8 (Q9NR97 27-1041): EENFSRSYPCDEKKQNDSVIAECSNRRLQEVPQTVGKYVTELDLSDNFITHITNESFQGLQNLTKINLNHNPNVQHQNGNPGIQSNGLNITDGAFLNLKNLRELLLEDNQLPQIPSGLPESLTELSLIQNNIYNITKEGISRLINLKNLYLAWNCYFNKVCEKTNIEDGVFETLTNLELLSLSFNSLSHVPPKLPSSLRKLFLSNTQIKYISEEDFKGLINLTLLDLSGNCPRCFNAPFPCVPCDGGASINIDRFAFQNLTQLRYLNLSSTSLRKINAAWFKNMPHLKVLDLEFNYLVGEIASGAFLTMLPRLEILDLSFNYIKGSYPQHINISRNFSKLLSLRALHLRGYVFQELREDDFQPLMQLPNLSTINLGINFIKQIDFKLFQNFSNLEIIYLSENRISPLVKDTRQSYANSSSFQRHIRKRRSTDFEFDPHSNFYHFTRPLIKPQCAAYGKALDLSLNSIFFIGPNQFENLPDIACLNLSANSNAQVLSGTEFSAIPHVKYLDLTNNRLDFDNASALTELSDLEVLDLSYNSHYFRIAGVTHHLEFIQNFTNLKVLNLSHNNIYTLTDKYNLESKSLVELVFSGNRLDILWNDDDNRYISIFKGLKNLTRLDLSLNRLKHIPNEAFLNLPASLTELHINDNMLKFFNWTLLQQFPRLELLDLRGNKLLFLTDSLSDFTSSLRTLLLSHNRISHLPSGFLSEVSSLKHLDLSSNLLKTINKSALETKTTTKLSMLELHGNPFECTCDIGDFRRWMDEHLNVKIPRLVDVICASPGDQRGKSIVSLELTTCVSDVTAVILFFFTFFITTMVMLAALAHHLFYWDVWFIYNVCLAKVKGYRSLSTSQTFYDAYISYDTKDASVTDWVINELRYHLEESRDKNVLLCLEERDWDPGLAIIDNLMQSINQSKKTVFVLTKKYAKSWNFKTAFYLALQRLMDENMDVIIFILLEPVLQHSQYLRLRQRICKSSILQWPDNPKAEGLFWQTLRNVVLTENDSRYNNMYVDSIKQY

SMILES	EC50 [1] [nM]	EC50 [2] [nM]	EC50 [3] [nM]	EC50 ([4]; read-out: IFN-γ EC50) [nM]	EC50 ([4]; read-out: IL-12p40 EC50) [nM]	EC50 ([4]; read-out: TNF-α EC50) [nM]
CCCCC(C)(CNC(=O)[C@@H]1CCCN1)Nc1nc(N)nc2cccnc12 (single isomer, unassigned) [Compound 1]	2	> 15000	> 50000	15	6	30
CCCCC(C)(CNC(=O)[C@@H]1COCCN1)Nc1nc(N)nc2cccnc12 (single isomer, unassigned) [Compound 4]	14	> 15000	–	–	–	–
CCCCC(C)(CNC(=O)[C@@H]1CC(F)(F)CN1)Nc1nc(N)nc2cccnc12 (single isomer, unassigned) [Compound 5]	106	> 15000	–	–	–	–
CCCCC(C)(CNC(=O)[C@@H]1CCN1)Nc1nc(N)nc2cccnc12 (single isomer, unassigned) [Compound 7]	15	> 15000	–	–	–	–

The remaining molecules from weak to strong by EC50 [1], led by results:

EC50 [1] [nM]	EC50 [2] [nM]	EC50 [3] [nM]	EC50 ([4]; read-out: IFN-γ EC50) [nM]	EC50 ([4]; read-out: IL-12p40 EC50) [nM]	EC50 ([4]; read-out: TNF-α EC50) [nM]	SMILES
32	> 15000	–	–	–	–	CCCCC(C)(CNC(=O)[C@@H]1CCCN1)Nc1nc(N)nc2ccccc12 (stereo partly drawn) [Compound 3]
18	> 15000	–	–	–	–	CCCCC(C)(CNC(=O)[C@@H]1CCCCN1)Nc1nc(N)nc2cccnc12 (single isomer, unassigned) [Compound 6]
6	> 15000	–	–	–	–	CCCCC(C)(CNC(=O)[C@@H]1CCCN1)Nc1nc(N)nc2cnccc12 (stereo partly drawn) [Compound 2]
